Here are results for eight molecules from patent US5756423A, “Method of controlling plants by inhibition of farnesyl pyrophosphate synthase” (Zeneca Limited, priority 1997, dated 1998).

The subject of experiment [1] is green foxtail (Setaria viridis) (SETVI). Kind of experiment: post-emergent herbicidal test, green foxtail. Particulars: Setaria viridis, post-emergence, read-out: SETVI percent control; for pest or weed control at 4000 g/ha: 4.0 kg/ha. It counts as in vivo. The source says:
(§1) Seeds of several different weed species were planted in sandy loam soil containing only trace organic matter. Propagules were sown in individuals rows using one species per row across the width of an aluminum flat (19.5×9.5×6 cm). The grass weeds planted were green foxtail (Setaria viridis) ("SETVI"), wild oat (Avena fatua) ("AVEFA"), barnyard grass (Enchinochloa crusgalli) ("ECHCG"). Broadleaf weeds utilized were wild mustard (Brassica kaber), also known as Sinapis arvensis, ("SINAR"), velvetleaf (Abutilon theophrasti) ("ABUTH") and morningglory (Ipomoea spp.) ("IPOSS"). Additionally, yellow nutsedge (Cyperus esculentus) ("CYPES"), nutlets were sown. Seeding depths ranged from 1.0 to 1.5 cm and plant densities ranged from 3 to 25 plants per row depending on individual plant species.
(§2) The flats were placed into a greenhouse and watered overhead by sprinkling. The greenhouse environmental systems provided the plants with natural and artificial (via metal halide lamps) lighting to attain 14 hours of light per day. Day and night temperatures were maintained at 29° and 21° C. respectively. The plants were grown for 10 to 12 days (or to the appropriate growth stage) prior to compound application. Grasses were sprayed at a 3 to 4 leaf stage and broadleaves at a 1 to 2 leaf stage. Yellow nutsedge was 5 to 7 cm tall at application.
(§3) Solutions of the test compounds were prepared by weighing out 18.8 and 74.7 mg for 1 and 4 kg/ha applications respectively, of the test compound into a 60 ml wide-mouth bottle, then dissolving the compound in 14.0 ml of deionized water containing 0.5% v/v Tween 20' (polyoxyethylene sorbitan monolaurate emulsifier) as a surfactant. Additional solvents, not exceeding 2 ml (15% of spray volume), were used if needed to dissolve the compound.
(§4) The plants were sprayed inside an enclosed linear spray table with the nozzle set at 30.5 cm (12 inches) above the foliage.
(§5) Treated plants were then returned to a greenhouse and watered daily without wetting the foliage.
(§6) The degree of weed control was evaluated 17-21 days after application and recorded as percentage of control as compared to the growth of the same species in an untreated control flat of the same. Percent control is the total injury to the plants due to all factors including: inhibited emergence, stunting, malformation, chlorosis and other types of plant injury. The control ratings range from 0 to 100 percent, where 0% represents no effect with growth equal to the untreated control and where 100% represents complete kill.

In experiment [2] the test system is velvetleaf (Abutilon theophrasti) (ABUTH). Kind of experiment: post-emergent herbicidal test, velvetleaf. The note with it: Abutilon theophrasti, post-emergence, read-out: ABUTH percent control; for pest or weed control at 4000 g/ha: 4.0 kg/ha. The class given is in vivo.
Source text: as §1, §2, §3, §4, §5, §6

In experiment [3] the test system is yellow nutsedge (Cyperus esculentus) (CYPES). As to the kind of experiment: post-emergent herbicidal test, yellow nutsedge. It counts as in vivo. The note with it: Cyperus, post-emergence, read-out: CYPES percent control; for pest or weed control at 4000 g/ha: 4.0 kg/ha.
Source text: as §1, §2, §3, §4, §5, §6

Experiment [4] deals with morningglory (Ipomoea spp.) (IPOSS). As to the kind of experiment: post-emergent herbicidal test, morningglory. Particulars: Ipomoea, post-emergence, read-out: IPOSS percent control; for pest or weed control at 4000 g/ha: 4.0 kg/ha. It counts as in vivo.
Source text: as §1, §2, §3, §4, §5, §6

Experiment [5] concerns farnesyl pyrophosphate synthase in daffodil chromoplasts. As to the kind of experiment: inhibition of farnesyl pyrophosphate synthase in daffodil chromoplasts (14C-isopentenyl pyrophosphate incorporation). It counts as biochemical, Narcissus pseudonarcissus. Particulars: unit inferred, IC50 values in nM, read-out: IC50. Here is the method:
The IC50 value may be determined as follows. Daffodil chromoplasts are diluted to a volume of 500 microliters in a buffer containing 0.5M sucrose, 3 mM MgCl2, 1 mM ethylenediaminetetraacetic acid, 20 mM N-tris[hydroxymethyl]methyl-2-aminoethanesulfonic acid, […] N-[2-hydroxyethyl]-piperazine-N'-[2-ethanesulfonic acid], 5 mM L-cysteine, 10 mM sodium fluoride, and 0.1% bovine serum albumin at pH 7.7. The inhibitor to be tested may be dissolved in water other suitable solvent and then added to the reaction mixture. The assay is started by the addition of ^14 C-labeled isopentenyl pyrophosphate (52 Ci/mol) to give a final concentration in the assay of about 3 micromolar. The mixture is incubated at 30° C. with gentle agitation for a period of about 30 min. The reaction may be stopped by the addition of 0.5 mL of saturated NaCl and 2 mL of n-butanol saturated with water. After thorough mixing, the turbid suspensions are centrifuged briefly to separate the layers, and 1 mL of the bright yellow upper butanol layer is added to 10 mL of a suitable scintillation fluid which gives a single phase. The butanol soluble radioactivity is then measured in a scintillation counter.
In addition, the problem of variable quenching differences among different experiments can be essentially eliminated by determining the incorporation of radioactivity relative to controls. Each set of experiments requires two control tubes identical to the test samples except that they contain no inhibitor. One of these is quenched immediately (TO sample) and one is quenched at the end of the normal incubation period (T100 sample).
For each concentration of inhibitor examined the % residual activity is determined from the formula [formula]
Tightly closed daffodil flowers (Narcissus pseudonarcissus) were allowed to open at room temperature. […] Coronae were placed in twice their weight of isolation buffer consisting of 67 mM potassium phosphate, 0.74M sucrose, 5 mM MgCl2, and 0.2% polyvinyl-pyrrolidone at pH 7.6 and were disrupted by 30 seconds of homogenization at high speed in a Waring-type blender. The mixture was filtered through several layers of cheesecloth and 2 layers of 100 micron nylon mesh, and the resulting filtrate was centrifuged at 1000×g for 10 minutes. The pellet was discarded and supernatant was centrifuged at 22,000×g for 20 minutes. […] This solution was centrifuged at 22,000×g for 20 minutes to give orange pellets which were suspended in a buffer of 100 mM tris(hydroxymethyl)aminomethane at pH 7.6 containing 5mM MgCl2 and 2 mM dithiothreitol (1 ml per 10 coronae). This solution was frozen in liquid nitrogen and then stored at -80° C.
Thawed daffodil chromoplasts (100-150 microliters) were diluted to a final volume of 500 microliters in a buffer containing 0.5M sucrose, 3 mM MgCl2, 1 mM ethylenediaminetetraacetic acid, 10 mM N-[2-hydroxyethyl]piperazine-N^1 -[2-ethanesulfonic acid], 5 mM L-cysteine, 10 mM sodium fluoride, and 0.1% bovine serum albumin at pH 7.7. The inhibitor to be tested was dissolved in water or other suitable solvent and was added to the reaction mixture. The assay was started by the addition of ^14 C-labeled isopentenyl pyrophosphate (52 Ci/mol) to give a final concentration in the assay of about 3 micromolar. The mixture was incubated at 30° C. with gentle agitation for a period of about 30 minutes. The reaction was stopped by the addition of 0.5 mL of saturated NaCl and 2 mL of n-butanol saturated with water. After thorough mixing, the turbid suspensions were centrifuged briefly to separate the layers, and 1 mL of the bright yellow upper butanol layer was added to 10 mL of a suitable scintillation fluid which gave a single phase. The butanol soluble radioactivity was then measured in a scintillation counter. Each set of experiments required two control tubes identical to the test samples except that they contain no inhibitor.

The subject of experiment [6] is wild mustard (Brassica kaber), also known as Sinapis arvensis (SINAR). As to the kind of experiment: post-emergent herbicidal test, wild mustard. It counts as in vivo. The note with it: Brassica, post-emergence, read-out: SINAR percent control; for pest or weed control at 4000 g/ha: 4.0 kg/ha.
Source text: as §1, §2, §3, §4, §5, §6

In experiment [7] the test system is barnyard grass (Enchinochloa crusgalli) (ECHCG). As to the kind of experiment: post-emergent herbicidal test, barnyard grass. The class given is in vivo. Particulars: Echinochloa crus-galli, post-emergence, read-out: ECHCG percent control; for pest or weed control at 4000 g/ha: 4.0 kg/ha.
Source text: as §1, §2, §3, §4, §5, §6

Experiment [8] deals with wild oat (Avena fatua) (AVEFA). Kind of experiment: post-emergent herbicidal test, wild oat. The note with it: Avena fatua, post-emergence, read-out: AVEFA percent control; for pest or weed control at 4000 g/ha: 4.0 kg/ha. It counts as in vivo.
Source text: as §1, §2, §3, §4, §5, §6

Setting [9] is: post-emergent, 1.0 kg/ha (*), 17-21 days after application.
[10] abbreviates: post-emergent, 17-21 days after application.

Broadly, the IC50 is the point on the concentration scale where inhibition reaches its midpoint.

Read-outs that look alike come from different tables or passages of the source.

For `CCCNCC(P(=O)(O)O)P(=O)(O)O` [Compound 3], the pest or weed control at 1000 g/ha in experiment [1] stood at 100%; in experiment [2], 70%; in experiment [3], 30%; in experiment [4], 95%; in experiment [6], 100%; in experiment [7] it was 100%. The pest or weed control at 1000 g/ha in experiment [8] turned out to be 100%. The half-inhibitory concentration (IC50) in experiment [5] (Table I) and in experiment [5] (Table II) was 30 nM in each case.

Take `CC1CCCN(CC(P(=O)(O)O)P(=O)(O)O)C1C` (stereo not drawn) [Compound 57]: the pest or weed control at 1000 g/ha in experiment [1] (setting [9]) is 100%; in experiment [2] (setting [9]), 80%; in experiment [3] (setting [9]) it was 15%; in experiment [4] (setting [9]), 90%; in experiment [6] (setting [9]), 100%; in experiment [7] (setting [9]), 100%. Besides, the pest or weed control at 1000 g/ha in experiment [8] (setting [9]) came out at 100%. Besides, the IC50 in experiment [5] (Table I) and in experiment [5] (Table II) was 96 nM throughout.

As for `CCCCN(CCC)CC(P(=O)(O)O)P(=O)(O)O` [Compound 52], the pest or weed control at 1000 g/ha in experiment [1] (setting [9]) was 100%; in experiment [2] (setting [9]), 75%; in experiment [3] (setting [9]), 20%; in experiment [4] (setting [9]), 20%; in experiment [6] (setting [9]), 100%; in experiment [7] (setting [9]), 100%. The pest or weed control at 1000 g/ha in experiment [8] (setting [9]) is 100%. Besides, the IC50 in experiment [5] (Table I) and in experiment [5] (Table II) was 87 nM each time.

Regarding `CNCC(P(=O)(O)O)P(=O)(O)O` [Compound 25], the pest or weed control at 1000 g/ha stood at 100% in experiment [1]; 98% in experiment [2]; 85% in experiment [3]; 90% in experiment [4]; 100% in experiment [6]; 100% in experiment [7]. Also, the pest or weed control at 1000 g/ha in experiment [8] is 100%. The IC50 in experiment [5] (Table I) and in experiment [5] (Table II) was 1680 nM throughout.

In the case of `CCOCCNCC(P(=O)(O)O)P(=O)(O)O` [Compound 22], the pest or weed control at 1000 g/ha in experiment [1] (setting [9]) stood at 20%; in experiment [2] (setting [9]) it was 5%; in experiment [3] (setting [9]), 0%; in experiment [4] (setting [9]) it was 5%; in experiment [6] (setting [9]) it was 40%; in experiment [7] (setting [9]), 15%. In experiment [8] (setting [9]), the pest or weed control at 1000 g/ha is 0%. Moreover, the half-maximal inhibitory concentration (IC50) in experiment [5] (Table I) worked out at 1160 nM; in experiment [5] (Table II), 1660 nM.

For `O=P(O)(O)C(O)(C1CCCCN1)P(=O)(O)O` (stereo not drawn) [Compound 9], the pest or weed control at 4000 g/ha in experiment [1] (setting [10]) amounted to 100%; in experiment [2] (setting [10]), 30%; in experiment [3] (setting [10]), 15%; in experiment [4] (setting [10]), 30%; in experiment [6] (setting [10]), 100%; in experiment [7] (setting [10]), 30%. Besides, in experiment [8] (setting [10]), the pest or weed control at 4000 g/ha came to 60%. In addition, the half-inhibitory concentration (IC50) in experiment [5] (Table I) and in experiment [5] (Table II) was 209 nM each time.

On to `CC(C)(C)NCC(P(=O)(O)O)P(=O)(O)O` [Compound 7], for which the pest or weed control at 4000 g/ha in experiment [1] (setting [10]) stood at 60%; in experiment [2] (setting [10]), 5%; in experiment [3] (setting [10]), 15%; in experiment [4] (setting [10]) it was 60%; in experiment [6] (setting [10]), 100%; in experiment [7] (setting [10]), 50%. Further, the pest or weed control at 4000 g/ha in experiment [8] (setting [10]) is 85%. In addition, the IC50 in experiment [5] (Table I) turned out to be 238 nM; in experiment [5] (Table II), 239 nM.

On to `CC[C@H](C)NCC(P(=O)(O)O)P(=O)(O)O` [Compound 56], for which the pest or weed control at 1000 g/ha in experiment [1] (setting [9]) was 100%; in experiment [2] (setting [9]), 95%; in experiment [3] (setting [9]) it was 60%; in experiment [4] (setting [9]) it was 98%; in experiment [6] (setting [9]), 100%; in experiment [7] (setting [9]), 100%. Also, the pest or weed control at 1000 g/ha in experiment [8] (setting [9]) is 100%. The IC50 in experiment [5] (Table I) and in experiment [5] (Table II) was 32 nM in each case.
